From the NIST ThermoML archive (doi:10.1016/j.jct.2011.02.008)

Experiment: xn = mol fraction of the nth substance listed
Conditions: Liquid, Vibrating tube method

COC(=O)c1ccccc1 [methyl benzoate] + CCCCCCO
mass density [kg/m3]
Conditions | x1 = 0.1004 | x1 = 0.2007 | x1 = 0.3007 | x1 = 0.4013 | x1 = 0.5005 | x1 = 0.6009 | x1 = 0.7 | x1 = 0.8008 | x1 = 0.9009
318.15 K, 30000 kPa | 846.9 | 872.9 | 899.1 | 925.4 | 951.5 | 977.9 | 1003.9 | 1030.5 | 1056.8
318.15 K, 35000 kPa | 849.9 | 875.9 | 902.1 | 928.4 | 954.5 | 980.9 | 1006.9 | 1033.5 | 1059.8
318.15 K, 40000 kPa | 852.8 | 878.8 | 905.1 | 931.4 | 957.4 | 983.8 | 1009.8 | 1036.4 | 1062.7
318.15 K, 45000 kPa | 855.7 | 881.7 | 907.9 | 934.3 | 960.3 | 986.7 | 1012.7 | 1039.3 | 1065.6
318.15 K, 50000 kPa | 858.4 | 884.5 | 910.7 | 937.1 | 963.1 | 989.5 | 1015.5 | 1042.1 | 1068.4
318.15 K, 55000 kPa | 861.1 | 887.2 | 913.4 | 939.8 | 965.8 | 992.2 | 1018.2 | 1044.6 | 1071.1
318.15 K, 60000 kPa | 863.6 | 889.6 | 915.9 | 942.3 | 968.3 | 994.9 | 1020.7 | 1047.2 | 1073.6
328.15 K, 100 kPa | 818.7 | 844.4 | 870.4 | 896.7 | 922.5 | 948.8 | 974.9 | 1001.4 | 1027.8
328.15 K, 1000 kPa | 819.4 | 845.1 | 871.1 | 897.4 | 923.2 | 949.5 | 975.6 | 1002.1 | 1028.5
328.15 K, 5000 kPa | 822.6 | 848.3 | 874.3 | 900.5 | 926 | 952.6 | 978.6 | 1005.1 | 1031.5
328.15 K, 10000 kPa | 826.4 | 852.1 | 878.1 | 904.3 | 930.1 | 956.3 | 982.2 | 1008.7 | 1035.1
328.15 K, 15000 kPa | 830 | 855.7 | 881.7 | 907.8 | 933.7 | 959.9 | 985.8 | 1012.3 | 1038.6
328.15 K, 20000 kPa | 833.5 | 859.2 | 885.2 | 911.3 | 937.2 | 963.3 | 989.2 | 1015.7 | 1042
328.15 K, 25000 kPa | 836.9 | 862.6 | 888.6 | 914.6 | 940.5 | 966.6 | 992.5 | 1019 | 1045.3
328.15 K, 30000 kPa | 840.1 | 865.8 | 891.8 | 917.9 | 943.7 | 969.9 | 995.7 | 1022.2 | 1048.5
328.15 K, 35000 kPa | 843.3 | 869 | 895 | 921.1 | 946.9 | 973 | 998.9 | 1025.3 | 1051.6
328.15 K, 40000 kPa | 846.3 | 872 | 898 | 924.1 | 950 | 976 | 1001.9 | 1028.3 | 1054.6
328.15 K, 45000 kPa | 849.2 | 874.9 | 901 | 927.1 | 952.9 | 979 | 1004.9 | 1031.3 | 1057.6
328.15 K, 50000 kPa | 852.1 | 877.8 | 903.9 | 930 | 955.8 | 981.9 | 1007.8 | 1034.2 | 1060.5
328.15 K, 55000 kPa | 854.9 | 880.6 | 906.7 | 932.8 | 958.7 | 984.8 | 1010.7 | 1037.1 | 1063.3
328.15 K, 60000 kPa | 857.4 | 883.2 | 908.8 | 935.6 | 960.6 | 987.4 | 1013.3 | 1039.6 | 1066.1
338.15 K, 100 kPa | 810.7 | 836.2 | 862 | 888 | 913.7 | 939.7 | 965.6 | 992 | 1018.4
338.15 K, 1000 kPa | 811.4 | 837 | 862.7 | 888.7 | 914.4 | 940.4 | 966.3 | 992.7 | 1019.1
338.15 K, 5000 kPa | 814.9 | 840.4 | 866.1 | 892 | 917.7 | 943.7 | 969.5 | 996 | 1022.3
338.15 K, 10000 kPa | 818.9 | 844.3 | 870.1 | 896 | 921.6 | 947.6 | 973.4 | 999.7 | 1026
338.15 K, 15000 kPa | 822.7 | 848.2 | 873.8 | 899.7 | 925.4 | 951.4 | 977.2 | 1003.4 | 1029.7
338.15 K, 20000 kPa | 826.4 | 851.8 | 877.5 | 903.4 | 929.1 | 955 | 980.7 | 1007 | 1033.3
338.15 K, 25000 kPa | 829.9 | 855.3 | 881 | 906.9 | 932.5 | 958.5 | 984.2 | 1010.5 | 1036.7
338.15 K, 30000 kPa | 833.3 | 858.7 | 884.4 | 910.3 | 935.9 | 961.8 | 987.5 | 1013.8 | 1040
338.15 K, 35000 kPa | 836.5 | 862 | 887.7 | 913.6 | 939.2 | 965.1 | 990.8 | 1017.1 | 1043.3
338.15 K, 40000 kPa | 839.7 | 865.1 | 890.9 | 916.8 | 942.4 | 968.3 | 994 | 1020.2 | 1046.4
338.15 K, 45000 kPa | 842.7 | 868.2 | 894 | 919.9 | – | – | – | – | –
